# Reference: PubChem BioAssay (NCI)
#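 These data come from cells grown in 96-well plates and exposed to compound for 48 hours at five concentrations. GI50 marks 50% less growth. TGI is the concentration that stops growth completely.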
# Key:
# Test in all cases: DTP human tumour cell line panel, 48 h
# [1] = system: 786-0 renal
# [2] = system: A498 renal
# [3] = system: A549 NSCLC
# [4] = system: ACHN renal
# [5] = system: BT-549 breast
# [6] = system: CAKI-1 renal
# [7] = system: CCRF-CEM leukemia
# [8] = system: COLO 205 colon
# [9] = system: DU-145 prostate
# [10] = system: EKVX NSCLC
# [11] = system: HCT-116 colon
# [12] = system: HCT-15 colon
# [13] = system: HL-60(TB) leukemia
# [14] = system: HOP-62 NSCLC
# [15] = system: HOP-92 NSCLC
# [16] = system: HS 578T breast
# [17] = system: HT29 colon
# [18] = system: IGROV1 ovarian
# [19] = system: K-562 leukemia
# [20] = system: KM12 colon
# [21] = system: LOX IMVI melanoma
# [22] = system: M14 melanoma
# [23] = system: MALME-3M melanoma
# [24] = system: MCF7 breast
# [25] = system: MDA-MB-231 breast
# [26] = system: MDA-MB-435
# [27] = system: MOLT-4 leukemia
# [28] = system: NCI-H226 lung
# [29] = system: NCI-H460 lung
# [30] = system: NCI-H522 lung
# [31] = system: OVCAR-3 ovarian
# [32] = system: OVCAR-4 ovarian
# [33] = system: OVCAR-8 ovarian
# [34] = system: RPMI-8226 leukemia
# [35] = system: RXF 393 renal
# [36] = system: SF-268 CNS
# [37] = system: SF-295 CNS
# [38] = system: SF-539 CNS
# [39] = system: SK-MEL-2 melanoma
# [40] = system: SK-MEL-28 melanoma
# [41] = system: SK-MEL-5 melanoma
# [42] = system: SK-OV-3 ovarian
# [43] = system: SN12C renal
# [44] = system: SNB-19 CNS
# [45] = system: SR leukemia
# [46] = system: SW-620 colon
# [47] = system: T-47D breast
# [48] = system: TK-10 renal
# [49] = system: U251 CNS
# [50] = system: UACC-257 melanoma
# [51] = system: UO-31 renal
# [52] = system: NCI-H23 lung
# [53] = system: OVCAR-5 ovarian
# [54] = system: PC-3 prostate
# [55] = system: UACC-62 melanoma
# [56] = system: SNB-75 CNS
structure (smiles),measurement,setting,value
CCOC(=O)c1c2c(n(CC(C)C)c1C)-c1nc[nH]c1C(=O)C2=O,GI50,[1],19.2 µM
same,TGI,[1],33.3 µM
same,GI50,[2],15.6 µM
same,TGI,[2],29 µM
same,GI50,[3],14.9 µM
same,TGI,[3],28.1 µM
same,GI50,[4],14.2 µM
same,TGI,[4],27.2 µM
same,GI50,[5],16.4 µM
same,TGI,[5],30.4 µM
same,GI50,[6],17.7 µM
same,TGI,[6],57.8 µM
same,GI50,[7],4.78 µM
same,TGI,[7],16.7 µM
same,GI50,[8],18 µM
same,TGI,[8],32.3 µM
same,GI50,[9],16.1 µM
same,TGI,[9],29.6 µM
same,GI50,[10],15 µM
same,TGI,[10],28.2 µM
same,GI50,[11],5.92 µM
same,TGI,[11],18.8 µM
same,GI50,[12],14.7 µM
same,TGI,[12],27.9 µM
same,GI50,[13],0.388 µM
same,TGI,[13],2.82 µM
same,GI50,[14],19.1 µM
same,TGI,[14],34.2 µM
same,GI50,[15],3.82 µM
same,TGI,[15],16.2 µM
same,GI50,[16],38.9 µM
same,TGI,[16],> 100 µM
same,GI50,[17],20.4 µM
same,TGI,[17],46.5 µM
same,GI50,[18],18.8 µM
same,TGI,[18],36 µM
same,GI50,[19],6.74 µM
same,TGI,[19],20.1 µM
same,GI50,[20],16.9 µM
same,TGI,[20],31.2 µM
same,GI50,[21],7.91 µM
same,TGI,[21],20.5 µM
same,GI50,[22],23 µM
same,TGI,[22],40.5 µM
same,GI50,[23],21.1 µM
same,TGI,[23],36.6 µM
same,GI50,[24],16.3 µM
same,TGI,[24],29.9 µM
same,GI50,[25],6.85 µM
same,TGI,[25],20.1 µM
same,GI50,[26],18.2 µM
same,TGI,[26],32.6 µM
same,GI50,[27],2.57 µM
same,TGI,[27],9.45 µM
same,GI50,[28],15 µM
same,TGI,[28],28.5 µM
same,GI50,[29],16.5 µM
same,TGI,[29],30.1 µM
same,GI50,[30],15.7 µM
same,TGI,[30],29.4 µM
same,GI50,[31],13 µM
same,TGI,[31],26.3 µM
same,GI50,[32],12.7 µM
same,TGI,[32],25.3 µM
same,GI50,[33],15.8 µM
same,TGI,[33],29.3 µM
same,GI50,[34],8.91 µM
same,TGI,[34],21.6 µM
same,GI50,[35],13.9 µM
same,TGI,[35],26.8 µM
same,GI50,[36],15.2 µM
same,TGI,[36],28.5 µM
same,GI50,[37],19.2 µM
same,TGI,[37],35.9 µM
same,GI50,[38],14 µM
same,TGI,[38],26.9 µM
same,GI50,[39],19.4 µM
same,TGI,[39],34 µM
same,GI50,[40],19.3 µM
same,TGI,[40],33.4 µM
same,GI50,[41],16.2 µM
same,TGI,[41],30.2 µM
same,GI50,[42],22.4 µM
same,TGI,[42],37.3 µM
same,GI50,[43],13.4 µM
same,TGI,[43],26.2 µM
same,GI50,[44],16.4 µM
same,TGI,[44],30.1 µM
same,GI50,[45],0.384 µM
same,TGI,[45],2.15 µM
same,GI50,[46],20.8 µM
same,TGI,[46],39.1 µM
same,GI50,[47],3.3 µM
same,TGI,[47],14.3 µM
same,GI50,[48],20.5 µM
same,TGI,[48],36.6 µM
same,GI50,[49],14.2 µM
same,TGI,[49],27.2 µM
same,GI50,[50],18.4 µM
same,TGI,[50],32.3 µM
same,GI50,[51],16.3 µM
same,TGI,[51],29.9 µM
COc1cccc(OC(=O)c2ccccc2Nc2ccnc(C(F)(F)F)c2)c1,GI50,[1],3.43 µM
same,TGI,[1],12.2 µM
same,GI50,[3],3.18 µM
same,TGI,[3],20.7 µM
same,GI50,[4],3.4 µM
same,TGI,[4],24.7 µM
same,GI50,[5],8.11 µM
same,TGI,[5],55 µM
same,GI50,[6],2.68 µM
same,TGI,[6],80.2 µM
same,GI50,[8],2.22 µM
same,TGI,[8],5.13 µM
same,GI50,[10],6.62 µM
same,TGI,[10],> 100 µM
same,GI50,[11],1.12 µM
same,TGI,[11],3.07 µM
same,GI50,[12],2.81 µM
same,TGI,[12],12 µM
same,GI50,[13],2.15 µM
same,TGI,[13],15.2 µM
same,GI50,[14],2.84 µM
same,TGI,[14],6.73 µM
same,GI50,[15],5.77 µM
same,TGI,[15],60.4 µM
same,GI50,[16],4.85 µM
same,TGI,[16],> 100 µM
same,GI50,[17],3.68 µM
same,TGI,[17],> 100 µM
same,GI50,[18],23.6 µM
same,TGI,[18],> 100 µM
same,GI50,[19],0.739 µM
same,TGI,[19],> 100 µM
same,GI50,[21],1.07 µM
same,TGI,[21],10.4 µM
same,GI50,[22],1.36 µM
same,TGI,[22],4.04 µM
same,GI50,[24],7.29 µM
same,TGI,[24],> 100 µM
same,GI50,[25],2.12 µM
same,TGI,[25],16.9 µM
same,GI50,[27],0.692 µM
same,TGI,[27],4.29 µM
same,GI50,[28],8.09 µM
same,TGI,[28],77.3 µM
same,GI50,[52],2.04 µM
same,TGI,[52],6.73 µM
same,GI50,[29],4.1 µM
same,TGI,[29],> 100 µM
same,GI50,[30],7.61 µM
same,TGI,[30],> 100 µM
same,GI50,[31],1.65 µM
same,TGI,[31],10.5 µM
same,GI50,[53],3.53 µM
same,TGI,[53],35.6 µM
same,GI50,[33],3.63 µM
same,TGI,[33],29.3 µM
same,GI50,[54],3.25 µM
same,TGI,[54],> 100 µM
same,GI50,[34],1.01 µM
same,TGI,[34],3.86 µM
same,GI50,[35],20.7 µM
same,TGI,[35],59.6 µM
same,GI50,[36],4.65 µM
same,TGI,[36],26.7 µM
same,GI50,[37],2.51 µM
same,TGI,[37],> 100 µM
same,GI50,[39],34.4 µM
same,TGI,[39],> 100 µM
same,GI50,[40],12.7 µM
same,TGI,[40],> 100 µM
same,GI50,[41],2.23 µM
same,GI50,[43],5.33 µM
same,TGI,[43],41.2 µM
same,GI50,[44],3.52 µM
same,TGI,[44],> 100 µM
same,GI50,[46],4.37 µM
same,TGI,[46],> 100 µM
same,GI50,[47],50.5 µM
same,TGI,[47],> 100 µM
same,GI50,[48],11.2 µM
same,TGI,[48],37 µM
same,GI50,[49],2.86 µM
same,TGI,[49],11 µM
same,GI50,[50],5.37 µM
same,TGI,[50],32.4 µM
same,GI50,[55],3.09 µM
same,TGI,[55],33.9 µM
same,GI50,[51],61.2 µM
same,TGI,[51],> 100 µM
O=C1C2C(C(=O)N1c1ccc(OCc3ccccc3)cc1)C1c3ccccc3C2C2CCCCN21 (stereo not given),GI50,[8],73.3 µM
same,GI50,[17],79.7 µM
same,GI50,[19],59.8 µM
same,GI50,[30],53.5 µM
same,GI50,[34],64 µM
same,GI50,[44],47.6 µM
same,GI50,[56],61.4 µM
same,GI50,[49],41.5 µM
same,GI50,[51],32.7 µM
